What all share (type): biochemical
Test [1] concerns the target cathepsin L (Homo sapiens, UniProt P07711). In words: Measurement of cathepsin L inhibitory activity. On the procedure:
(iv) Measurement of Cathepsin L Inhibitory Activity
5 μL of Synthesized substrate (carbobenzoxy-L-phenylalanyl-L-arguine-4-methyl-chromanyl-7-amide or L-prolyl-L-phenylalanyl-L-arguinine-4-methyl-chromanyl-7-amide) solution and 5 μL of cysteine protease inhibitor solution of several concentrations, 80 μL of cathepsin L enzyme reaction buffer (400 mmol/L acetic acid, 4 mmol/L EDTA, 8 mmol/L DTT were mixed to adjust to pH 5.5) and 10 μL of cathepsin L enzyme solution were mixed and the increase of fluorescence intensity was measured (λex (excitation wavelength)=355 nm, λem (fluorescence wavelength)=460 nm) when reacted at 37° C.

For test [2], the target named is cathepsin B (Homo sapiens, UniProt P07858). As to the kind of experiment: Measurement of cathepsin B inhibitory activity. On the procedure:
(ii) Measurement of Cathepsin B Inhibitory Activity
10 μL of Synthesized substrate (carbobenzoxy-L-arginyl-L-arginine-4-methyl-chromanyl-7-amide or carbobenzoxy-L-phenylalanyl-L-arginine-4-methyl-chromanyl-7-amide) solution of several concentrations, 10 μL of cysteine protease inhibitor solution of several concentrations, 70 μL of cathepsin B enzyme reaction buffer (mixture of 400 mmol/L in acetic acid, 4 mmol/L EDTA, 8 mmol/L DDT to adjust to pH 5.5) and 10 μL of cathepsin B enzyme solution were mixed and the increase of fluorescence intensity was measured (λex (excitation wavelength)=355 nm, λem (fluorescence wavelength)=460 nm) when reacted at 37° C.

Test [3] concerns the target cathepsin S (Homo sapiens, UniProt P25774). As to the kind of experiment: Measurement of cathepsin S inhibitory activity. On the procedure:
(iii) Measurement of Cathepsin S Inhibitory Activity
10 μL of synthesized substrate (carbobenzoxy-L-leucyl-L-leucyl-L-arguinine-4-methyl-chromanyl-7-amide) solution and 5 μL of cysteine protease inhibitor solution of several concentrations, 75 μL of cathepsin S enzyme reaction buffer (100 mmol/L of sodium phosphate, 2 mmol/L of EDTA, 2 mmol/L of DTT were mixed to adjust to pH 6.5) and 10 μL of cathepsin S enzyme solution were mixed and the increase of fluorescence intensity was measured (λex (excitation wavelength)=355 nm, λem (fluorescence wavelength)=460 nm) when reacted at 37° C.

Test [4] has as its target T1, cathepsin K (Homo sapiens, UniProt P43235).
T1 sequence (P43235 115-329): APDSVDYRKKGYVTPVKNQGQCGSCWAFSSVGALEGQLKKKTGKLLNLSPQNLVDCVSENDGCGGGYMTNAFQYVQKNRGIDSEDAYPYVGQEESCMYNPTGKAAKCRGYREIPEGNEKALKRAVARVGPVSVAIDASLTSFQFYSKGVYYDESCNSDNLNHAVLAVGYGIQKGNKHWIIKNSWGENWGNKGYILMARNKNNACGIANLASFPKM
As to the kind of experiment: Measurement of cathepsin K inhibitory activity. To be noted: Dixon plot, fluorogenic substrate, pH 5.5, 37° C. On the procedure: (i) Measurement of Cathepsin K Inhibitory Activity
65 μL of Cathepsin K enzyme reaction buffer (50 mmol/L of 2-(N-morpholino)ethanesulfonate, 2 mmol/L of ethylenediamine tetraacetate (EDTA) and 4 mmol/L of dithiothreitol (DTT) were mixed to adjust to pH 5.5), 5 μL of cysteine protease inhibitor solution of several concentrations, 20 μL of synthesized substrate (t-butyloxycarbonyl-L-alanyl-glycyl-L-prolyl-L-arginine-4-methyl-chromanyl-7-amide) solution of several concentrations and 10 μL of cathepsin K enzyme solution were mixed and the increase of fluorescence intensity when reacted at 37° C. was measured (λex (excitation wavelength)=355 nm, λem (fluorescence wavelength)=460 nm). As to the substrate and the compound of the present invention, enzyme reactions were carried out in combination of several appropriate concentrations and Dixon plotting was prepared, to define the absolute value of X-coordinate of the intersection point of the graph as Ki value.

SMILES strings stand for the structures.

Chain of cathepsin S (P25774 115-331, species assumed): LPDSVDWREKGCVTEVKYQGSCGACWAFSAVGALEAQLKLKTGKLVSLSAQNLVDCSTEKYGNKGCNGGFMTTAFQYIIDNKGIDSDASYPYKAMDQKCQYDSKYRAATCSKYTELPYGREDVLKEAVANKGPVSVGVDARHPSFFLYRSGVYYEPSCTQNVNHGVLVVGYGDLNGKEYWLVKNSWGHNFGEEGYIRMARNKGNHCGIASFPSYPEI
Chain of cathepsin L (P07711 114-333, species assumed): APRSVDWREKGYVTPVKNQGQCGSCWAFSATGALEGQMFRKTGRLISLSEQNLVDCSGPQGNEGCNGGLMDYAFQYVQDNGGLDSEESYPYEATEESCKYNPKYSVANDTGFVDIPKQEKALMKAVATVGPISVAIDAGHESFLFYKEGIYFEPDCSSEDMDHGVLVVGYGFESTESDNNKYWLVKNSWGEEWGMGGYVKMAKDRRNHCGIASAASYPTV

In general, inhibition refers to the percentage by which the read-out fell short of the control. Low readings indicate a weak effect, high ones a strong effect. The compound `CC(C)C[C@H](NC(=O)OCc1ccccc1)C(=O)N[C@@H](CC(C)C)C(=O)c1nn(CC2CCC2)c(=O)o1` [1 (21), (2S)-N-[(2S)-1-(3-cyclobutylmethyl-2-oxo-1,3,4-oxadiazolin-5-yl)-4-methyl-1-oxo-2-pentyl]-2-benzyloxycarbonylamino-4-methylpentanamide] showed an inhibition at 1 µM in test [1] of 92%.
As for `CC(C)C[C@H](NC(=O)[C@@H]1CCCC[C@@H]1NC(=O)c1ccccc1)C(=O)c1nnc(SCc2ccccc2)o1` [3 (5), 1-[(1R,2S)-2-benzoylaminocyclohexyl]-N-[(2S)-1-(5-benzylthio-1,3,4-oxadiazol-2-yl)-4-methyl-1-oxo-2-pentyl]carboxamide], at 1 µM the inhibition in test [2] was 100%.
As to `CSc1nnc(C(=O)[C@H](CCc2ccccc2)NC(=O)[C@@H]2CCCC[C@@H]2NC(=O)c2ccccc2)o1` [3 (7), 1-[(1R,2S)-2-benzoylaminocyclohexyl]-N-[(2S)-1-(5-methylthio-1,3,4-oxadiazol-2-yl)-1-oxo-4-phenyl-2-butyl]carboxamide], testing at 1 µM in test [3] gave an inhibition of 100%.
Usually Ki stands for a dissociation constant, usually derived from enzyme kinetics or from competition with a known ligand. Take `CC(C)C[C@H](NC(=O)OCc1ccccc1)C(=O)N[C@@H](CC(C)C)C(=O)c1nnc(SC(C)C)o1` [example 3]: the Ki in test [4] amounted to 1.3 nM.

These data come from patent US7144901B2, “Oxadiazole derivatives and drugs containing these derivatives as the active ingredient” (ONO Pharmaceutical Co.,Ltd., priority 1999, dated 2006).
